From patent US7514567B2 (priority 2003, dated 2009)

Target: α7 nAChR Subtype (Rattus norvegicus, UniProt Q05941)
Type: binding
Conditions: read-out: KD of radioligand from saturation curves

α7 nAChR Subtype, sequence (Q05941 23-502 limits assumed): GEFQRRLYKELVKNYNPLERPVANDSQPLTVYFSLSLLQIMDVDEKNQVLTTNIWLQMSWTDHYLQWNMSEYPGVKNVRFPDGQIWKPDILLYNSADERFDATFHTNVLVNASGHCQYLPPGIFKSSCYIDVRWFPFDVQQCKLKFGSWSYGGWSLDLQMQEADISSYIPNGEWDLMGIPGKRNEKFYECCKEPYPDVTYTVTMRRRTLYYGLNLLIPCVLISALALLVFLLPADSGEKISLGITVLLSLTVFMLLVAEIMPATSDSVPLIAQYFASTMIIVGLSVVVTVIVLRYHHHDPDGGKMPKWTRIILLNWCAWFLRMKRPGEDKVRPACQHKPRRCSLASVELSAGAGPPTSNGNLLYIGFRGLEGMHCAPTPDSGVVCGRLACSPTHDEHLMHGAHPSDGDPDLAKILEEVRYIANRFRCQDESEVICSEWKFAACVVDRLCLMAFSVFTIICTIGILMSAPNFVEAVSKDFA

[^125I]-α-Bungarotoxin [[^125I]-α-BTX]
Kd: 1.67 nM
